Values of other authors in paper PMC6582641 (Organic & biomolecular chemistry, 2019).

Key:
TRPC5 = conditions: read-out: IC50 towards TRPC5
TRPC4 = conditions: read-out: IC50 TRPC4

Row | IC50 (TRPC5) | binding activity toward TRPM2 (TRPM (melastatin) 2) | binding activity toward TRPC6 (TRPC6) | binding activity toward TRPC3 (TRPC3) | binding activity toward TRPV1 (TRPV (vanilloid) 1) | binding activity toward TRPA1 (TRPA (ankyrin) 1) | IC50 (TRPC4) | binding activity toward TRPV4 (TRPV (vanilloid) 4) | binding activity toward TRPM8 (TRPM (melastatin) 8) | Structure (SMILES) | anxiolytic and antidepressant effects (mice)
1 | 6.2 nM | no binding activities | no binding activities | no binding activities | no binding activities | no binding activities | 32.5 nM | no binding activities | no binding activities | Cn1c(=O)n(CCCO)c(=O)c2c1nc(Oc1cccc(OC(F)(F)F)c1)n2Cc1ccc(Cl)cc1 [HC608, 7-(4-Chlorobenzyl)-1-(3-Hydroxypropyl)-3-Methyl-8-(3-(Trifluoromethoxy)Phenoxy)-3,7-Dihydro-1H-Purine-2,6-Dione] | 
2 |  |  |  |  |  |  |  |  |  | Cn1c(=O)n(CCCO)c(=O)c2c1nc(Oc1cccc(Cl)c1)n2Cc1ccc(Cl)cc1 [HC070, 7-(4-Chlorobenzyl)-8-(3-Chlorophenoxy)-1-(3-Hydroxypropyl)-3-Methyl-3,7-Dihydro-1H-Purine-2,6-Dione] | produces anxiolytic and antidepressant effects in mice
